The results in this text go back to PubChem BioAssay (NCI).

As usually defined, the GI50 is the concentration that inhibits growth by half. As a reminder, the TGI is the concentration at which net growth stops. Lower therefore signals greater sensitivity of the cells.

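How tested: cells in 96-well plates exposed to compound for 48 hours at five concentrations. GI50 marks 50% less growth. TGI is the concentration that stops growth completely.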

Test systems include A549 NSCLC; HCT-116 colon; LOX IMVI melanoma; SK-MEL-28 melanoma; SK-MEL-5 melanoma; SK-OV-3 ovarian; SN12C renal; SNB-75 CNS; TK-10 renal; UACC-62 melanoma.
Holding throughout (assay): DTP human tumour cell line panel, 48 h

Take `COc1cc(C(=O)c2cc3c(cc2C)OCO3)cc(OC)c1OC`: the GI50 is 0.125 µM in the experiment on A549 NSCLC; 0.0682 µM in the experiment with HCT-116 colon; 0.551 µM in the experiment with LOX IMVI melanoma; 0.0879 µM with SK-MEL-28 melanoma; 0.0454 µM in the experiment with SK-MEL-5 melanoma; 0.0874 µM in the experiment with SK-OV-3 ovarian. Further, the concentration for 50% growth inhibition (GI50) in the experiment with SN12C renal was 0.289 µM; in the experiment with SNB-75 CNS it was 0.0429 µM; with TK-10 renal, 34.2 µM; in the experiment on UACC-62 melanoma, 0.247 µM. For the same compound, the total growth inhibition concentration (TGI) with A549 NSCLC is greater than 100 µM; in the experiment with HCT-116 colon, greater than 100 µM; in the experiment on LOX IMVI melanoma it was greater than 100 µM; in the experiment on SK-MEL-28 melanoma, greater than 100 µM; with SK-MEL-5 melanoma, 1.74 µM; in the experiment with SK-OV-3 ovarian, greater than 100 µM. Also, the TGI with SN12C renal, in the experiment with SNB-75 CNS, in the experiment with TK-10 renal and in the experiment with UACC-62 melanoma was greater than 100 µM throughout.
Regarding `CS(=O)(=O)Nc1ccc(Nc2c3ccccc3nc3ccccc23)cc1`, the concentration for total growth inhibition (TGI) was 10.1 µM in the experiment with A549 NSCLC; 15 µM in the experiment with HCT-116 colon; 13.9 µM in the experiment with LOX IMVI melanoma; 20.7 µM with SK-MEL-28 melanoma; 10.4 µM in the experiment with SK-MEL-5 melanoma; 16.1 µM in the experiment on SK-OV-3 ovarian. Also, the total growth inhibition concentration (TGI) in the experiment on SN12C renal is 17.1 µM; with SNB-75 CNS it was 19.1 µM; with TK-10 renal it was 9.52 µM; in the experiment with UACC-62 melanoma, 9 µM.
`COC(=O)C1=C(C(=O)OC)C23C=C(C)C1C2=C(C)C1(CC1)[C@@](C)(O)C3=O` (stereo not given in full): the GI50 was 0.255 µM with A549 NSCLC; 0.37 µM in the experiment with HCT-116 colon; 0.358 µM with LOX IMVI melanoma; 0.714 µM with SK-MEL-28 melanoma; 0.164 µM in the experiment with SK-MEL-5 melanoma; 0.25 µM in the experiment with SK-OV-3 ovarian. Besides, the GI50 was 0.435 µM in the experiment on SN12C renal, 0.198 µM with SNB-75 CNS, 1.35 µM in the experiment with TK-10 renal and 0.259 µM in the experiment on UACC-62 melanoma. The TGI with A549 NSCLC turned out to be 0.858 µM; in the experiment with HCT-116 colon, 11.5 µM; with LOX IMVI melanoma it was 2.89 µM; in the experiment with SK-MEL-28 melanoma, 3.97 µM; in the experiment with SK-MEL-5 melanoma, 0.314 µM; with SK-OV-3 ovarian, 0.7 µM. Besides, the TGI in the experiment on SN12C renal is 13.3 µM; in the experiment with SNB-75 CNS, 0.547 µM; in the experiment on TK-10 renal, 11.3 µM; in the experiment on UACC-62 melanoma, 0.792 µM.
With `CCOC(=O)c1cn(Cc2ccccc2)c(=O)n1Cc1ccccc1`, the TGI in the experiment with A549 NSCLC, with HCT-116 colon, with LOX IMVI melanoma, in the experiment with SK-MEL-28 melanoma, in the experiment on SK-MEL-5 melanoma and with SK-OV-3 ovarian was greater than 100 µM each time. The total growth inhibition concentration (TGI) in the experiment with SN12C renal, in the experiment with SNB-75 CNS, in the experiment with TK-10 renal and with UACC-62 melanoma was greater than 100 µM throughout.
Take `CN(C)CCCc1c[nH]c2ccccc12`: the total growth inhibition concentration (TGI) in the experiment on A549 NSCLC, in the experiment with HCT-116 colon, with LOX IMVI melanoma, in the experiment with SK-MEL-28 melanoma, in the experiment with SK-MEL-5 melanoma and with SK-OV-3 ovarian was greater than 100 µM in each case. Further, the TGI in the experiment on SN12C renal, in the experiment with SNB-75 CNS, in the experiment with TK-10 renal and in the experiment on UACC-62 melanoma was greater than 100 µM in each case.
On to `NS(=O)(=O)c1ccc(CCN=C=S)cc1`, for which the GI50 was 2.03 µM in the experiment with A549 NSCLC; 1.75 µM in the experiment with HCT-116 colon; 1.92 µM in the experiment with LOX IMVI melanoma; 2.59 µM in the experiment on SK-MEL-28 melanoma; 2.14 µM in the experiment with SK-MEL-5 melanoma; 18.2 µM in the experiment on SK-OV-3 ovarian. The GI50 with SN12C renal was 2.17 µM; in the experiment with SNB-75 CNS it was 1.16 µM; with TK-10 renal it was 0.987 µM; in the experiment with UACC-62 melanoma, 1.81 µM. The total growth inhibition concentration (TGI) is 4.85 µM with A549 NSCLC; 3.45 µM in the experiment with HCT-116 colon; 3.72 µM in the experiment with LOX IMVI melanoma; 7.28 µM in the experiment with SK-MEL-28 melanoma; 4.89 µM in the experiment with SK-MEL-5 melanoma; 32.4 µM in the experiment on SK-OV-3 ovarian. In addition, the TGI in the experiment with SN12C renal was 5.14 µM; in the experiment with SNB-75 CNS, 3.16 µM; in the experiment on TK-10 renal it was 3.79 µM; in the experiment with UACC-62 melanoma it was 3.59 µM.
Consider `CCOC(=O)c1c(C(F)(F)F)n([O-])c2ccc(OC)cc2[n+]1=O`, for which the GI50 is 8.57 µM in the experiment with A549 NSCLC; 4.13 µM in the experiment with HCT-116 colon; 5.22 µM in the experiment on LOX IMVI melanoma; 20.3 µM with SK-MEL-28 melanoma; 1.7 µM in the experiment on SK-MEL-5 melanoma; 3.71 µM with SK-OV-3 ovarian. Besides, the GI50 was 2.84 µM in the experiment with SN12C renal, 3.55 µM with SNB-75 CNS, 9.68 µM in the experiment on TK-10 renal and 2.69 µM with UACC-62 melanoma. Also, the TGI in the experiment on A549 NSCLC is greater than 100 µM; in the experiment with HCT-116 colon, 18.3 µM; in the experiment on LOX IMVI melanoma, 25.4 µM; in the experiment on SK-MEL-28 melanoma it was greater than 100 µM; in the experiment on SK-MEL-5 melanoma it was 3.31 µM; in the experiment with SK-OV-3 ovarian, 20.3 µM. Besides, the total growth inhibition concentration (TGI) was 22.2 µM with SN12C renal, 39.8 µM with SNB-75 CNS, greater than 100 µM in the experiment with TK-10 renal and 12 µM in the experiment on UACC-62 melanoma.
As for `Nc1c(C(=O)Nc2ccccc2Cl)sc2nc3c(cc12)CCCCCC3`, the GI50 in the experiment with A549 NSCLC is 4.54 µM; in the experiment on HCT-116 colon it was 1.95 µM; with LOX IMVI melanoma it was 5.7 µM; in the experiment with SK-MEL-28 melanoma, 10.2 µM; in the experiment on SK-MEL-5 melanoma, 3.91 µM; in the experiment on SK-OV-3 ovarian it was 2.65 µM. Also, the GI50 was 9.11 µM in the experiment with SN12C renal, 1.57 µM with SNB-75 CNS, 2.4 µM in the experiment with TK-10 renal and 3.32 µM in the experiment with UACC-62 melanoma. The TGI in the experiment with A549 NSCLC is 73.2 µM; with HCT-116 colon, 6.6 µM; in the experiment on LOX IMVI melanoma it was greater than 100 µM; in the experiment with SK-MEL-28 melanoma it was greater than 100 µM; with SK-MEL-5 melanoma, greater than 100 µM; in the experiment with SK-OV-3 ovarian it was 7.88 µM. For the same compound, the TGI with SN12C renal is greater than 100 µM; in the experiment with SNB-75 CNS, 3.35 µM; in the experiment on TK-10 renal, 6.22 µM; in the experiment on UACC-62 melanoma, greater than 100 µM.
In the case of `CCOC(=O)/C(=C/c1ccc(C#N)cc1)N(CC)CC`, the total growth inhibition concentration (TGI) with A549 NSCLC, with HCT-116 colon, with LOX IMVI melanoma, with SK-MEL-28 melanoma, with SK-MEL-5 melanoma and in the experiment with SK-OV-3 ovarian was greater than 100 µM in each case. The TGI in the experiment with SN12C renal, in the experiment on SNB-75 CNS, in the experiment on TK-10 renal and in the experiment on UACC-62 melanoma was greater than 100 µM throughout.
